We go through 22 compounds from patent publication US9447075B2, “Pyridazine derivatives as EAAT2 activators” (The Brigham and Women's Hospital, Inc., priority 2011, dated 2016).

In this test the test system is EAAT2. In words: EAAT2 protein levels in PA-EAAT2 cells by Western blot. In kind it is cell-based, human. The following applies: for Improvement of potency/activity compared to 1: compared to compound 1, Table 4; for Fold increase for EAAT2, 4 h / Fold increase for EAAT2, 24 h: compound 10 μM, PA-EAAT2 cells, relative to DMSO controls, na = not active; for Fold increase for EAAT2, 4 h: 4 h incubation; for Fold increase for EAAT2, 24 h: 24 h incubation; for SAR comparison of activity on EAAT2 protein levels, in words: relative to parent/comparator analogue, Tables 1-4. Here is the method:
All of the derivates of 1 were initially evaluated in PA-EAAT2 cells^3 (a primary astrocyte line stably expressing EAAT2 mRNAs) following compound (10 μM) incubation for 4 and 24 h before harvesting and measuring EAAT2 levels by Western blot analysis. The fold increases in EAAT2 protein levels relative to DMSO controls are reported (Tables 1-4).
Characterization and efficacy studies of a compound, Compound 212320 (FIG. 6A) is shown. […] In the absence of serum, PA-EAAT2 cells express low amounts of EAAT2 protein, although the recombinant EAAT2 mRNA are expressed (translational silencing); however, EAAT2 protein levels are increased when an activator is added to the culture (translational activation). This cell line was used for high-throughput screening to identify EAAT2 translational activators. To prioritize candidate compounds, we initially evaluated activation of EAAT2 protein in PA-EAAT2 cells. Promising compounds were further evaluated in primary dissociated neuron and astrocyte mixed cultures and then in mice. FIG. 6 presents the characterization of Compound 212320 in PA-EAAT2 cells. Compound 212320 increased EAAT2 protein levels in a dose—(FIG. 6B) and time—(FIG. 6C) dependent manner. Importantly, the induction occurred in a short amount of time (within 1-2 hr) and was sustained even up to 72 hr (data not show). Additionally, induction occurred at low nanomolar concentrations. […] (FIG. 6D).

Structures are written as SMILES.

`CC(Sc1ccc(-c2ccccn2)nn1)c1c(F)cccc1Cl` (racemic) [Compound 7-14]: the “Improvement of potency/activity compared to 1” value is given as “about 3 fold”; the “Fold increase for EAAT2, 4 h” value is listed as 1.7 ± 0.9 fold; the “Fold increase for EAAT2, 24 h” value is recorded as 5.5 ± 1.0 fold.
Consider `Fc1cccc(Cl)c1COc1ccc(-c2ccccn2)nn1` [Compound 8-2], for which the “Fold increase for EAAT2, 4 h” value turned out to be 1.1 ± 0.3 fold and the “Fold increase for EAAT2, 24 h” value is 2.9 ± 0.4 fold.
On to `Cc1cccc(C)c1CSc1ccc(-c2ccccn2)nn1` [Compound 7-13], for which the “Fold increase for EAAT2, 24 h” value amounted to 6.5 ± 1.0 fold and the “SAR comparison of activity on EAAT2 protein levels, in words” value (shortened to “SAR comparison of activity”) is reported as “increased potency”.
Turning to `Clc1cccc(CSc2ccc(-c3ccccn3)nn2)c1` [Compound 7-18], the “Improvement of potency/activity compared to 1” value was “two-fold”; the “Fold increase for EAAT2, 4 h” value was 2.1 ± 0.3 fold; the “Fold increase for EAAT2, 24 h” value was 4.1 ± 0.5 fold.
In the case of `Cc1ccccc1CNc1ccc(-c2ccccn2)nn1` [Compound 14], the “Fold increase for EAAT2, 4 h” value is reported as 1.7 ± 1.1 fold; the “Fold increase for EAAT2, 24 h” value worked out at 2.6 ± 0.5 fold; the “SAR comparison of activity” value is reported as “weaker activity”.
`Fc1cccc(Cl)c1CSc1ccc(-c2ccccn2)nn1` [Compound 1]: the “Fold increase for EAAT2, 24 h” value is recorded as 2.0 ± 0.8 fold. Further, the “EAAT2 protein levels, dose dependence” value (after 24 h exposure) is listed as “dose-dependent increase”.
As to `Sc1ccc(-c2ccccn2)nn1` [Compound 6-1], the “Fold increase for EAAT2, 24 h” value came out at 2.0 ± 0.8 fold and the “SAR comparison of activity” value was “essentially the same potency as 1”.
For `Cc1cc(C)c(CSc2ccc(-c3ccccn3)nn2)c(C)c1` [Compound 7-30], the “Fold increase for EAAT2, 4 h” value was 1.7 ± 0.3 fold; the “Fold increase for EAAT2, 24 h” value was 4.7 ± 0.5 fold; the “SAR comparison of activity” value is “increased potency”.
`Cc1ccccc1CCSc1ccc(-c2ccccn2)nn1` [Compound 7-32]: the “Fold increase for EAAT2, 4 h” value is reported as 1.2 ± 0.3 fold; the “Fold increase for EAAT2, 24 h” value stood at 2.8 ± 0.4 fold; the “SAR comparison of activity” value was “exception”.
The corresponding values for `Fc1cc(F)c(CSc2ccc(-c3ccccn3)nn2)c(F)c1` [Compound 7-26] are 1.6 ± 1.0 fold, 2.4 ± 0.6 fold and “did not result in significant improvement”.
With `Fc1cccc(Cl)c1CSc1ccc(-c2cccnc2)nn1` [Compound 7-1], the “Fold increase for EAAT2, 24 h” value was 2.3 ± 0.8 fold and the “SAR comparison of activity” value is recorded as “reduced activity”.
Turning to `Cc1ccc(Sc2ccc(-c3ccccn3)nn2)c(C)c1` [Compound 7-29], the “Fold increase for EAAT2, 4 h” value is given as 1.2 ± 0.3 fold; the “Fold increase for EAAT2, 24 h” value worked out at 2.2 ± 0.3 fold; the “SAR comparison of activity” value is reported as “decreased potency”.
The matching figures for `Cc1ccccc1CSc1ccc(-c2ccccc2)nn1` [Compound 7-6]: 1.1 ± 0.1 fold, 2.0 ± 0.4 fold and “reduced activity”.
`Cc1ccccc1CS(=O)(=O)c1ccc(-c2ccccn2)nn1` [Compound 9-2]: the “Fold increase for EAAT2, 4 h” value came out at 2.3 ± 0.4 fold; the “Fold increase for EAAT2, 24 h” value was determined as 1.1 ± 0.2 fold; the “SAR comparison of activity” value is “detrimental”.
`Clc1ccccc1CSc1ccc(-c2ccccn2)nn1` [Compound 7-7]: the “Improvement of potency/activity compared to 1” value is “two-fold”; the “Fold increase for EAAT2, 4 h” value came to 2.1 ± 1.4 fold; the “Fold increase for EAAT2, 24 h” value stood at 4.0 ± 0.3 fold.
Consider `Fc1ccc(COc2ccc(-c3ccccn3)nn2)c(F)c1` [Compound 8-6], for which the “Fold increase for EAAT2, 24 h” value was found to be 2.3 ± 0.6 fold.
Regarding `Oc1ccc(-c2ccccn2)nn1` [Compound 5-1], the “Fold increase for EAAT2, 4 h” value is given as 1.5 ± 0.5 fold and the “Fold increase for EAAT2, 24 h” value was found to be 1.6 ± 1.0 fold.
With `Clc1ccc(CSc2ccc(-c3ccccn3)nn2)c(Cl)c1` [Compound 7-21], the “Fold increase for EAAT2, 4 h” value came out at 1.8 ± 0.5 fold and the “SAR comparison of activity” value was “equivalent to 1”.
On to `CC(Oc1ccc(-c2ccccn2)nn1)c1c(F)cccc1Cl` (racemic) [Compound 8-4], for which the “Fold increase for EAAT2, 4 h” value is listed as 1.6 ± 0.2 fold and the “Fold increase for EAAT2, 24 h” value amounted to 3.0 ± 0.7 fold.
In the case of `CCSc1ccc(-c2ccccn2)nn1` [Compound 7-36], the “Fold increase for EAAT2, 4 h” value was 1.6 ± 0.7 fold; the “Fold increase for EAAT2, 24 h” value is given as 1.9 ± 0.9 fold; the “SAR comparison of activity” value was “essentially the same potency as 1”.
Turning to `Fc1cccc(F)c1CSc1ccc(-c2ccccn2)nn1` [Compound 7-25], the “Fold increase for EAAT2, 4 h” value is 2.1 ± 1.4 fold; the “Fold increase for EAAT2, 24 h” value worked out at 2.2 ± 0.7 fold; the “SAR comparison of activity” value is “did not result in significant improvement”.
The corresponding values for `Cc1cccc(CSc2ccc(-c3ccccn3)nn2)c1` [Compound 7-27] are 2.0 ± 0.2 fold, 2.8 ± 0.5 fold and “less potent”.
